Measurements published in ChEMBL document CHEMBL3421556, “Bis(aminomethyl)phosphinic Acid, a Highly Promising Scaffold for the Development of Bacterial Urease Inhibitors” (ACS Med Chem Lett, 2015).

Tests used:
[1] = Inhibition of urease from Sporosarcina pasteurii CCM 2056 using urea as substrate by Berthelot colorimetric assay
[2] = Inhibition of urease from Proteus mirabilis CCM 1944 using urea as substrate by Berthelot colorimetric assay

| Compound | Ki ([1]; read-out: Ki) [µM] | Ki ([2]; read-out: Ki) [µM] | Ki [1] | Ki [2] |
| --- | --- | --- | --- | --- |
| CCCCCCNCP(=O)(O)CN | 0.108 | 0.202 | – | – |
| CCCCCNCP(=O)(O)CN | 13.3 | 19 | – | – |
| CN(Cc1ccccc1)CP(=O)(O)CN | 14.2 | 58.3 | – | – |
| CNCP(=O)(O)CNC | 4.3 | 17.2 | – | – |
| CCCCCCCNCP(=O)(O)CN | 543 | 778 | – | – |
| CN(C)CP(=O)(O)CN(C)C | – | 243 | Not Active | – |
| CC(C)CNCP(=O)(O)CN | 270 | 416 | – | – |
| CCCCCCCCNCP(=O)(O)CN | – | – | Not Active | Not Active |
| NCP(=O)(O)CN1CCCCC1 | – | – | Not Active | Not Active |
| CCCNCP(=O)(O)CN | 11.2 | 16 | – | – |
| CNCP(=O)(O)CN | 1.59 | 34 | – | – |
| NCP(=O)(O)CNC1CCCCC1 | – | – | Not Active | Not Active |
| NCP(=O)(O)CN | 80 | 82 | – | – |
| O=P(O)(CNCc1ccccc1)CNCc1ccccc1 | 30.1 | 24.5 | – | – |
| CCN(CC)CP(=O)(O)CN | – | – | Not Active | Not Active |
| CN(C)CP(=O)(O)CN | 4.66 | 24.4 | – | – |
| CCCCNCP(=O)(O)CN | 9.6 | 25.9 | – | – |
| CC(=O)NO [ACETOHYDROXAMIC ACID] | 3.3 | 5.7 | – | – |
